This test has as its target unphosphorylated-BTK kinase domain (UP-BTK), GST-tagged human BTK (389-659aa) (Homo sapiens (Human), UniProt Q06187). As to the kind of experiment: BTK kinase Lanthascreen binding assay. The note with it: Lanthascreen tracer competition, 60 minutes incubation, pIC50 = negative log of the IC50 in molar; for IC50: read-out: BTK_I_binding pIC50 (converted). A digest of the protocol: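 Values are pIC50, i.e. negative log of IC50 in molar, derived from concentration–response fitting. Each compound competes with a fluorescently labelled tracer for the unphosphorylated kinase domain.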

SMILES strings stand for the structures.

Chain of unphosphorylated-BTK kinase domain (UP-BTK), GST-tagged human BTK (389-659aa) (Q06187 389-659): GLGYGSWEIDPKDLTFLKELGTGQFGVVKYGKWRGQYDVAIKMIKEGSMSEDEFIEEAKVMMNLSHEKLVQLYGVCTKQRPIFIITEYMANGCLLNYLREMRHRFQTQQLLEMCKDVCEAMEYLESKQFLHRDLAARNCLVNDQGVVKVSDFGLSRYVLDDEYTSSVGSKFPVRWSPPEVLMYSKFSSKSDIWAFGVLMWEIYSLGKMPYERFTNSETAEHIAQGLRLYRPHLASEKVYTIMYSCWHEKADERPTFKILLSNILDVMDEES

As to `C=CC(=O)N1CCC[C@@H](NC(=O)c2sc3nccc4c3c2NC(=O)N4c2ccc(OC3CCC3)cc2C)C1` (single isomer, unassigned) [Example 609, (R)—N-(1-Acryloylpiperidin-3-yl)-5-(*S)-(4-cyclobutoxy-2-methylphenyl)-4-oxo-4,5-dihydro-3H-1-thia-3,5,8-triazaacenaphthylene-2-carboxamide], the “BTK_I_binding pIC50” value came out at 6.3.

For `CC(C)(C)OC(=O)N1C[C@H](O)C[C@@H](NC(=O)c2sc3nccc4c3c2NC(=O)N4c2ccc(Oc3ccccc3)cc2)C1` (single isomer, unassigned) [Example 611], the IC50 is 631 nM. Turning to `C=CC(=O)N1CCC[C@@H](NC(=O)c2sc3nccc4c3c2NC(=O)N4c2cnc(Oc3ccccc3)cc2C)C1` (single isomer, unassigned) [Example 662, (R)—N-(1-Acryloylpiperidin-3-yl)-5-(*S)-(4-methyl-6-phenoxypyridin-3-yl)-4-oxo-4,5-dihydro-3H-1-thia-3,5,8-triazaacenaphthylene-2-carboxamide], the “BTK_I_binding pIC50” value is 8.1. The same measure, in the same setting: the figure for `C=CC(=O)N1CC[C@@H](NC(=O)c2sc3nccc4c3c2NC(=O)N4c2cnc(Oc3ccccc3)cc2C)C1` (single isomer, unassigned) [Example 663, (R)—N-(1-Acryloylpyrrolidin-3-yl)-5-(*S)-(4-methyl-6-phenoxypyridin-3-yl)-4-oxo-4,5-dihydro-3H-1-thia-3,5,8-triazaacenaphthylene-2-carboxamide] is 8.0; for `C=CC(=O)N1CC[C@@H](NC(=O)c2sc3nccc4c3c2NC(=O)N4c2cnc(Oc3ccccc3)nc2C)C1` (single isomer, unassigned) [Example 664, (R)—N-(1-Acryloylpyrrolidin-3-yl)-5-(*S)-(4-methyl-2-phenoxypyrimidin-5-yl)-4-oxo-4,5-dihydro-3H-1-thia-3,5,8-triazaacenaphthylene-2-carboxamide] it is 7.6; for `C=CC(=O)N1CC[C@@H](NC(=O)c2sc3nccc4c3c2NC(=O)N4c2ccc(Oc3ccccc3)nc2C)C1` (single isomer, unassigned) [Example 666, (R)—N-(1-Acryloylpyrrolidin-3-yl)-5-(*R)-(2-methyl-6-phenoxypyridin-3-yl)-4-oxo-4,5-dihydro-3H-1-thia-3,5,8-triazaacenaphthylene-2-carboxamide] it is 6.3. Turning to `C=CC(=O)N[C@H]1COC[C@H]1NC(=O)c1sc2nccc3c2c1NC(=O)N3c1cnc(Oc2ccccc2)cc1C` (single isomer, unassigned) [Example 668, N-(cis-4-Acrylamidotetrahydrofuran-3-yl)-5-(*)-(4-methyl-6-phenoxypyridin-3-yl)-4-oxo-4,5-dihydro-3H-1-thia-3,5,8-triazaacenaphthylene-2-carboxamide], the IC50 was 15.8 nM. As for `C=CC(=O)N1CCC[C@@H](NC(=O)c2sc3nccc4c3c2NC(=O)N4c2ccnc(-c3ccccc3)c2C)C1` (single isomer, unassigned) [Example 676, (R)—N-(1-Acryloylpiperidin-3-yl)-5-(*R)-(3-methyl-2-phenylpyridin-4-yl)-4-oxo-4,5-dihydro-3H-1-thia-3,5,8-triazaacenaphthylene-2-carboxamide], the “BTK_I_binding pIC50” value was found to be 7.6. Turning to `C=CC(=O)N1CCC[C@@H](NC(=O)c2sc3nccc4c3c2NC(=O)N4c2ccc(OC3CCC3)nc2C)C1` (single isomer, unassigned) [Example 682, (R)—N-(1-Acryloylpiperidin-3-yl)-5-(*S)-(6-cyclobutoxy-2-methylpyridin-3-yl)-4-oxo-4,5-dihydro-3H-1-thia-3,5,8-triazaacenaphthylene-2-carboxamide], the “BTK_I_binding pIC50” value is 7.3. Take `Cc1cc(Oc2ccccc2)ccc1N1C(=O)Nc2c(C(=O)N[C@@H]3CCCN(C(=O)/C=C/CN4C[C@@H]5OCCO[C@@H]5C4)C3)sc3nccc1c23` (single isomer, unassigned) [Example 684, 5-(*S)-(2-Methyl-4-phenoxyphenyl)-4-oxo-N—((R)-1-((E)-4-((4aR,7aS)-tetrahydro-2H-[1,4]dioxino[2,3-c]pyrrol-6(3H)-yl)but-2-enoyl)piperidin-3-yl)-4,5-dihydro-3H-1-thia-3,5,8-triazaacenaphthylene-2-carboxamide]: the IC50 is 31.6 nM. In the case of `Cc1cc(Oc2ccccc2)ncc1N1C(=O)Nc2c(C(=O)N[C@@H]3CCNC3)sc3nccc1c23` (single isomer, unassigned) [Example 702, (R)-5-(*S)-(4-Methyl-6-phenoxypyridin-3-yl)-4-oxo-N-(pyrrolidin-3-yl)-4,5-dihydro-3H-1-thia-3,5,8-triazaacenaphthylene-2-carboxamide], the “BTK_I_binding pIC50” value was 6.8. Turning to `Cc1nc(Oc2ccccc2)ncc1N1C(=O)Nc2c(C(=O)N[C@@H]3CCNC3)sc3nccc1c23` (single isomer, unassigned) [Example 715, (R)-5-(*S)-(4-Methyl-2-phenoxypyrimidin-5-yl)-4-oxo-N-(pyrrolidin-3-yl)-4,5-dihydro-3H-1-thia-3,5,8-triazaacenaphthylene-2-carboxamide], the “BTK_I_binding pIC50” value is on record as 6.3.

As for `Cc1nc(Oc2ccccc2)ccc1N1C(=O)Nc2c(C(=O)N[C@@H]3CCNC3)sc3nccc1c23` (single isomer, unassigned) [Example 717, (R)-5-(*S)-(2-Methyl-6-phenoxypyridin-3-yl)-4-oxo-N-(pyrrolidin-3-yl)-4,5-dihydro-3H-1-thia-3,5,8-triazaacenaphthylene-2-carboxamide], the “BTK_I_binding pIC50” value was 6.4. On to `C=CC(=O)N1CC[C@@H](NC(=O)c2sc3nccc4c3c2NC(=O)N4c2cnc(Oc3ccccc3)nc2C)C1` (single isomer, unassigned) [Example 724, (R)—N-(1-Acryloylpyrrolidin-3-yl)-5-(*R)-(4-methyl-2-phenoxypyrimidin-5-yl)-4-oxo-4,5-dihydro-3H-1-thia-3,5,8-triazaacenaphthylene-2-carboxamide], for which the “BTK_I_binding pIC50” value was found to be 6.1. For `Cc1nc(Oc2ccccc2)ccc1N1C(=O)Nc2c(C(=O)N[C@@H]3CCNC3)sc3nccc1c23` (single isomer, unassigned) [Example 728, (R)-5-(*R)-(2-Methyl-6-phenoxypyridin-3-yl)-4-oxo-N-(pyrrolidin-3-yl)-4,5-dihydro-3H-1-thia-3,5,8-triazaacenaphthylene-2-carboxamide], the “BTK_I_binding pIC50” value is reported as less than 6.

As to `C=CC(=O)N1CCC[C@@H](NC(=O)c2sc3nccc4c3c2NC(=O)N4c2ccc(OC3CCC3)nc2C)C1` (single isomer, unassigned) [Example 736, (R)—N-(1-Acryloylpiperidin-3-yl)-5-(*R)-(6-cyclobutoxy-2-methylpyridin-3-yl)-4-oxo-4,5-dihydro-3H-1-thia-3,5,8-triazaacenaphthylene-2-carboxamide], the “BTK_I_binding pIC50” value is recorded as less than 6. `C=CC(=O)N[C@H]1COC[C@H]1NC(=O)c1sc2nccc3c2c1NC(=O)N3c1cnc(Oc2ccccc2)cc1C` (single isomer, unassigned) [Example 745, N-((3*S,4*R)-4-Acrylamidotetrahydrofuran-3-yl)-5-(*S)-(4-methyl-6-phenoxypyridin-3-yl)-4-oxo-4,5-dihydro-3H-1-thia-3,5,8-triazaacenaphthylene-2-carboxamide]: the IC50 is 7.94 nM. Take `C=CC(=O)N1CCC[C@@H](NC(=O)c2sc3nccc4c3c2NC(=O)N4c2cnc(Oc3ccccc3)nc2C)C1` (single isomer, unassigned) [Example 746, (R)—N-(1-Acryloylpiperidin-3-yl)-5-(*S)-(4-methyl-2-phenoxypyrimidin-5-yl)-4-oxo-4,5-dihydro-3H-1-thia-3,5,8-triazaacenaphthylene-2-carboxamide]: the “BTK_I_binding pIC50” value turned out to be 8.1. Turning to `C=CC(=O)N[C@@H]1COC[C@@H]1NC(=O)c1sc2nccc3c2c1NC(=O)N3c1cnc(Oc2ccccc2)cc1C` (single isomer, unassigned) [Example 752, N-((*3R,*4S)-4-Acrylamidotetrahydrofuran-3-yl)-5-(*S)-(4-methyl-6-phenoxypyridin-3-yl)-4-oxo-4,5-dihydro-3H-1-thia-3,5,8-triazaacenaphthylene-2-carboxamide], the IC50 was 398 nM. In the case of `C=CC(=O)N1CCC[C@@H](NC(=O)c2sc3nccc4c3c2NC(=O)N4c2ccc(OC(C)C)nc2C)C1` (single isomer, unassigned) [Example 753, (R)—N-(1-Acryloylpiperidin-3-yl)-5-(*S)-(6-isopropoxy-2-methylpyridin-3-yl)-4-oxo-4,5-dihydro-3H-1-thia-3,5,8-triazaacenaphthylene-2-carboxamide], the “BTK_I_binding pIC50” value is 6.2. The same measure, in the same setting: the figure for `C=CC(=O)N1CCC[C@@H](NC(=O)c2sc3nccc4c3c2NC(=O)N4c2ccc(OC(C)C)nc2C)C1` (single isomer, unassigned) [Example 757, (R)—N-(1-Acryloylpiperidin-3-yl)-5-(*R)-(6-isopropoxy-2-methylpyridin-3-yl)-4-oxo-4,5-dihydro-3H-1-thia-3,5,8-triazaacenaphthylene-2-carboxamide] is less than 6. Still for that read-out and setting: under `Cc1cc(OCC(C)C)ncc1N1C(=O)Nc2c(C(=O)N[C@@H]3CCCNC3)sc3nccc1c23` (single isomer, unassigned) [Example 759, (R)-5-(*S)-(6-Isobutoxy-4-methylpyridin-3-yl)-4-oxo-N-(piperidin-3-yl)-4,5-dihydro-3H-1-thia-3,5,8-triazaacenaphthylene-2-carboxamide] stands 6.7; under `Cc1cc(OCC(C)C)ncc1N1C(=O)Nc2c(C(=O)N[C@@H]3CCCNC3)sc3nccc1c23` (single isomer, unassigned) [Example 760, (R)-5-(*R)-(6-Isobutoxy-4-methylpyridin-3-yl)-4-oxo-N-(piperidin-3-yl)-4,5-dihydro-3H-1-thia-3,5,8-triazaacenaphthylene-2-carboxamide], less than 6.
